Results from ChEMBL document CHEMBL3430912, “GSK Tres Cantos Anti-Kinetoplastid Screening (TCAKS) Data”.

Assays:
[1] = tested on: Trypanosoma brucei brucei; assay: GSK_TCAKS: pIC50 Trypanosoma brucei viability assay using fluorescence intensity. Assay plates (1536-well) were prepared by dispensing 25nL of compound solution per well using an Echo acoustic dispenser (Labcyte).; format: functional, organism-based; conditions: Lister 427, 2 h
Trypanosoma cruzi [2] = assay: (§1) GSK_TCAKS: pIC50 H2C9 Imaging: H9c2 Host Cardiomyocytes. […] Cells were then washed once with PBS before infection. T. cruzi trypomastigotes, collected at days 5 to 8 after infection from LLC-MK2 parasite infected cultures, were allowed to swim out for 4h at 37C from a centrifuged pellet (2,500 rpm/10 min/room temperature). Trypomastigotes were then collected and counted in a CASY Cell Counter. Trypomastigotes, in supplemented DMEM, were added to H9c2 cultures in a multiplicity of infection of 1 and incubated for 18 h. Cells were washed once with PBS before incubation of the infected H9c2 monolayer with trypsin (Life-Technologies) to detach cells from the flask. Cells were counted in a CASY Cell Counter using a 150 um capillary and their density set at 5 * 10^4 cells per mL in supplemented assay DMEM. Infected H9c2 were dispensed into 384-well poly-lysine coated assay plates at 50uL per well using a Multidrop Combi dispenser. After seeding them, the plates were incubated at 37C, 5% CO2 for 72h. Cultures were then fixed and stained by addition of 50 uL of a solution containing 8% formaldehyde and 4 uM DRAQ5 DNA dye (BioStatus, UK) per well. […] Five images were collected per well for reliable statistical analysis. Automated image analysis was performed with a script developed on Acapella High Content Imaging and Analysis Software (PerkinElmer). Output: Number of H9c2 Host Cardiomyocytes nuclei to determine drug-related cytotoxicity.; format: functional, organism-based, Rattus norvegicus; conditions: H9c2, 4 h
Leishmania donovani [3] = assay: (§2) GSK_TCAKS: pIC50 Leishmania donovani Imaging: THP-1 Host Macrophages. Assay plates (384-well) were prepared by adding 250nL of compound to each well. For single shot assay, the final compound concentration was 5 uM. […] Automated image analysis was performed with a script developed on Acapella High Content Imaging and Analysis Software (PerkinElmer). Output: THP-1 cell count were reported for each well.; format: functional, organism-based, Homo sapiens
Trypanosoma cruzi [4] = assay: GSK_TCAKS: pIC50 Trypanosoma cruzi viability assay using beta-GAL activity. This assay was run at single shot at 5uM compound concentration per well. The biological reagents consisted of NIH-3T3 host cells and trypomastigotes parasitic cells; both cell types were set to a 3.3 * 10^5 cells/mL dilution in assay DMEM by means of a CASY cell counter device using a 60um capillary. 6 uL of the mixture were dispensed per well (about 1 * 10^3 host-cells and 1 * 10^3 parasites) with a Multidrop Combi dispenser. […] In all wells, the percentage of DMSO never exceeded 0.5%. Plates incubated for four days at 37C, 5% CO2. The substrate used for the assay fluorescence intensity (FLINT) readout was resorufin-beta-D-galactopiranoside (Sigma-Aldrich) at 5uM per well. It was diluted in PBS supplemented with the soft detergent Igepal (Fluka).; format: functional, organism-based, Mus musculus; conditions: Tulahuen, NIH3T3
Leishmania donovani [5] = assay: as §2, with “Infected” for “THP-1 Host”, “Percent of infected macrophage cells” for “THP-1 cell count”; format: functional, organism-based, Homo sapiens; conditions: THP-1
Leishmania donovani [6] = assay: GSK_TCAKS: pIC50 Leishmania donovani viability assay using fluorescence intensity. Assay plates (1536-well) were prepared by adding 30nL per well of compound. For single shot assay, the final compound concentration was 5uM. […] Briefly, eGFP LdBOB axenic amastigotes were harvested, fixed and counted in a CASY cell counter (Roche-Applied Science). A final concentration of 1.5 * 10^5 cells per well were prepared in amastigote media containing 500 U/mL penicillin/streptomycin (Invitrogen) and 6uL was dispensed to each experimental well using a Multidrop Combi dispenser (Thermo Scientific). 6uL of assay media was dispensed to control columns used as reference for 100% compound response. Following incubation for 72 h at 37C, 5% CO2, 2 uL of resazurin was added to each well at a final concentration of 0.5 mM in phosphate buffered saline (PBS) with IGEPAL (Sigma-Aldrich), 0.05% (v/v).; format: functional, organism-based
[7] = target: Sterol 14-alpha demethylase (Trypanosoma cruzi (strain CL Brener), UniProt Q7Z1V1); assay: GSK_TCAKS: pIC50 CYP51 from Trypanosoma cruzi.; format: functional
Sequence of Sterol 14-alpha demethylase (Q7Z1V1 whole entry): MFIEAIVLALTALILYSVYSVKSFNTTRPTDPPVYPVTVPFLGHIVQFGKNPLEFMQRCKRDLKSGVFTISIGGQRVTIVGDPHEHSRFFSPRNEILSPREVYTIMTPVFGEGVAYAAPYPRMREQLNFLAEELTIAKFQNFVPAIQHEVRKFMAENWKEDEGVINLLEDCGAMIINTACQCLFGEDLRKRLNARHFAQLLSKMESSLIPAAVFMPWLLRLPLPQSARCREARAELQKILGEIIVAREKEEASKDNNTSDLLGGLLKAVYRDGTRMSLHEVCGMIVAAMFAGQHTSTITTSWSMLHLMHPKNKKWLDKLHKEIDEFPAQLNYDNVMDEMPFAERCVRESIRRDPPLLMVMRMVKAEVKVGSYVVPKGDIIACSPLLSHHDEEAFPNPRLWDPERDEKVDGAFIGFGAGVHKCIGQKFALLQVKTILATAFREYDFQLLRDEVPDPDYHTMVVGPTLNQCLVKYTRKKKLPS

[8] = GSK_TCAKS: pIC50 HepG2 human cell line viability assay using luminiscence. […] Seeding density was checked to ensure that new mono-layers were not more than 50% confluent at the time of harvesting. Cell suspension was added to 500 mL of the same medium at a final density of 1.2 * 10^5 cells/mL. This cell suspension was dispensed (25 uL, 3000 cells per well) into 384-well clear-bottom plates using a Multidrop Combi dispenser. Prior to addition of the cell suspension, the screening compounds (250 nL) were pre-dispensed into the plates with an Echo liquid handler. Plates were incubated for 48 h at 37C, 5% CO2. After incubation, plates equilibrated at room temperature for 30 min before proceeding to develop the luminescent signal. The signal developer, CellTiter-Glo Reagent, was allowed to equilibrate at room temperature for 30 min and added to the plates (25uL per well) using a Multidrop Combi dispenser. Plates were left for 10 min at room temperature for stabilization and then read using a ViewLux.; format: toxicity, cell-based
Leishmania donovani [9] = assay: as §2, with “Amastigotes/Macrophages.” for “THP-1 Host Macrophages.”, “Average number of amastigotes per macrophage” for “THP-1”, “cell” for “cell count”; format: functional, organism-based, Homo sapiens; conditions: THP-1
Trypanosoma cruzi [10] = assay: as §1, with “Trypanosoma cruzi” for “H2C9”, “Infected Cells.” for “H9c2 Host Cardiomyocytes.”, “percentage” for “Number”, “infected cells per well as a second infection marker.” for “H9c2 Host Cardiomyocytes nuclei to determine drug-related cytotoxicity.”; format: functional, organism-based, Rattus norvegicus; conditions: H9c2, 4 h
[11] = tested on: Trypanosoma brucei brucei; assay: GSK_TCAKS: pIC50 Trypanosoma brucei viability assay using luminiscence. Assay plates (1536-well) were prepared. T. brucei cultures were harvested and counted in a CASY cell counter. A parasite suspension was prepared at a final concentration of 5 * 10^4 cells/mL in complete HMI9 medium and 6uL was dispensed to all wells containing compounds using a Multidrop Combi dispenser. 6uL of HMI9 media with 0.4% DMSO were dispensed to control columns. Plates were incubated for 24 h at 37C, 5% CO2 then tempered for 10 min at room temperature. ATP content was quantified by adding 4 uL of CellTiter-Glo Reagent (Promega) according to the manufacturer's instructions. Luminescence was measured using a ViewLux.; format: functional, organism-based; conditions: Lister 427, CASY
Trypanosoma cruzi [12] = assay: as §1, with “Trypanosoma cruzi” for “H2C9”, “Amastigotes/Cell.” for “H9c2 Host Cardiomyocytes.”, “number” for “Number”, “amastigotes per cell as infection level measurement.” for “H9c2 Host Cardiomyocytes nuclei to determine drug-related cytotoxicity.”; format: functional, organism-based, Rattus norvegicus; conditions: H9c2, 4 h

Compound | IC50 [1] | IC50 (Trypanosoma cruzi [2]) | IC50 (Leishmania donovani [3]) | IC50 (Trypanosoma cruzi [4]) | IC50 (Leishmania donovani [5]) | IC50 (Leishmania donovani [6]) | IC50 [7] | IC50 at 48 h [8] | IC50 (Leishmania donovani [9]) | IC50 (Trypanosoma cruzi [10]) | IC50 [11] | IC50 (Trypanosoma cruzi [12])
CCn1c(NC(=O)Cc2ccc(F)cc2)nc2ccccc21 | 3.16 µM | > 50.1 µM | > 50.1 µM | 5.01 µM | 10 µM | 10 µM | 25.1 µM | > 100 µM | 6.31 µM | 7.94 µM | 5.01 µM | 3.98 µM
N#Cc1cc(-c2ccnc(Nc3cccc(CN4CCOCC4)c3)n2)ccc1NCCN | 0.398 µM | 7.94 µM | 7.94 µM | 7.94 µM | 1.58 µM | 3.98 µM | 31.6 µM | 50.1 µM | 0.794 µM | 31.6 µM | 1.26 µM | 15.8 µM
CN(C)Cc1cccc(Nc2nccc(-c3ccc(NCCN)c(C#N)c3)n2)c1 | 0.0501 µM | 2 µM | 6.31 µM | 1 µM | 1.26 µM | 2.51 µM | 6.31 µM | 25.1 µM | 0.501 µM | 10 µM | 0.2 µM | 1.58 µM
O=C(CC1(O)C(=O)N(Cc2cccs2)c2ccc(Br)cc21)c1cccnc1 (stereo not drawn) | 0.631 µM | 3.98 µM | 20 µM | 5.01 µM | > 50.1 µM | > 50.1 µM | 12.6 µM | 63.1 µM | > 50.1 µM | 39.8 µM | 0.794 µM | 25.1 µM
COc1cnc2ccc(=O)n(CCN3CCC(NC/C=C/c4cc(F)ccc4F)CC3)c2c1 | 0.398 µM | 15.8 µM | 39.8 µM | 0.0158 µM | 5.01 µM | 5.01 µM | 15.8 µM | 63.1 µM | 2 µM | 0.02 µM | 0.794 µM | 0.01 µM
Cc1cc2cc(CNc3ccc4c(c3)OCO4)c(=O)n(CCO)c2cc1C | 25.1 µM | > 50.1 µM | 39.8 µM | 0.631 µM | 0.501 µM | 6.31 µM | 10 µM | > 100 µM | 0.251 µM | 0.251 µM | > 39.8 µM | 0.2 µM
Cc1nn2c(=O)c3c([nH]c2c1-c1ccc(Br)cc1)CCCC3 | 0.398 µM | > 50.1 µM | > 50.1 µM | 1 µM | > 50.1 µM | 10 µM | > 100 µM | > 100 µM | 39.8 µM | 1.58 µM | 0.794 µM | 0.794 µM
COc1ccc(C(=O)NC2CCN(CCn3c(=O)ccc4ncc(F)cc43)CC2)cc1Cl | 0.126 µM | > 50.1 µM | > 50.1 µM | 0.501 µM | > 50.1 µM | 3.98 µM | 15.8 µM | > 100 µM | 15.8 µM | 0.631 µM | 0.251 µM | 0.316 µM
c1ccc2[nH]c(-c3ccc(N4CCCC4)nc3)nc2c1 | 0.794 µM | > 50.1 µM | 31.6 µM | 1 µM | > 50.1 µM | 5.01 µM | > 100 µM | > 100 µM | > 50.1 µM | 1.58 µM | 1 µM | 1 µM
